Activity calls are given as the source filed them. Some results are limits rather than exact numbers.

For test [1], the target named is Glyceraldehyde-3-phosphate dehydrogenase (Homo sapiens, UniProt P04406).
In test [2] the target is T1, Bcl-2-related protein A1 (Mus musculus, UniProt Q07440).
T1 sequence (Q07440 whole entry): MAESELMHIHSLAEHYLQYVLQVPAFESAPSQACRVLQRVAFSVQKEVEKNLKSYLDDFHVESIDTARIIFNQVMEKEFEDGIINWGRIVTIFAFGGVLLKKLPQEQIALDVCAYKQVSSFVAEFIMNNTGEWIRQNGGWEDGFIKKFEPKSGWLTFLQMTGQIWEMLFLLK
Briefly: Bfl-1 inhibitors blocking BH3 peptide binding, confirmation, biochemical, TR-FRET, mouse Bfl-1 (AID 621).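 Further: TR-FRET binding of GST-Bfl-1 to FITC-labelled Bid peptide via terbium antibody.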

Test [3] has as its target T1, Bcl-2-related protein A1. Briefly: Bfl-1 binding inhibitors, SAR follow-up, biochemical, fluorescence polarization (AID 1070).
In test [4] the target is T2, Estrogen receptor (Homo sapiens, UniProt P03372).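 Further: potency for inhibiting coactivator peptide recruitment to the receptor.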
T2 sequence (P03372 whole entry): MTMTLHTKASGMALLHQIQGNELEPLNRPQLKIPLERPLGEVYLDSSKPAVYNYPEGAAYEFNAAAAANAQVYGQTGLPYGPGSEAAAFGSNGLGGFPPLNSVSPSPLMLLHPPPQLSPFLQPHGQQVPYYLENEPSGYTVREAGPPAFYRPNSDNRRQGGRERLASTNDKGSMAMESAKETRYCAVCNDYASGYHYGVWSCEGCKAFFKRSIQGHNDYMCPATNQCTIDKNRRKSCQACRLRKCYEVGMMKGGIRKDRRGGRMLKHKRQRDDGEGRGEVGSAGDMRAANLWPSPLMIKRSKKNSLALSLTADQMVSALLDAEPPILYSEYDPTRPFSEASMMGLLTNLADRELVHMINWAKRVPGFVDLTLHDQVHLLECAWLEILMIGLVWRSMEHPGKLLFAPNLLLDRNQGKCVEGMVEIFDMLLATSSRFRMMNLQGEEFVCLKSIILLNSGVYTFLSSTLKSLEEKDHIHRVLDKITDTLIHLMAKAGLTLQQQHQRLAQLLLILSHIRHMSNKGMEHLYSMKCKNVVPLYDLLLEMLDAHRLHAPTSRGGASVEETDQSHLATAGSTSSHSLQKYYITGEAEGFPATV

Test [5] has as its target SUMO-activating enzyme (Homo sapiens, UniProt Q9UBT2). In words: inhibitors of in vitro SUMOylation cascade, primary screen, biochemical, HTRF, uHTS (AID 2006). The format is protein-complex assay.
For test [6], the target named is Protein-tyrosine kinase 2-beta (Homo sapiens, UniProt Q14289).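 Further: potency of inhibitors of PYK2 kinase phosphorylation of poly-GT substrate.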
Sequence of Protein-tyrosine kinase 2-beta (Q14289 whole entry): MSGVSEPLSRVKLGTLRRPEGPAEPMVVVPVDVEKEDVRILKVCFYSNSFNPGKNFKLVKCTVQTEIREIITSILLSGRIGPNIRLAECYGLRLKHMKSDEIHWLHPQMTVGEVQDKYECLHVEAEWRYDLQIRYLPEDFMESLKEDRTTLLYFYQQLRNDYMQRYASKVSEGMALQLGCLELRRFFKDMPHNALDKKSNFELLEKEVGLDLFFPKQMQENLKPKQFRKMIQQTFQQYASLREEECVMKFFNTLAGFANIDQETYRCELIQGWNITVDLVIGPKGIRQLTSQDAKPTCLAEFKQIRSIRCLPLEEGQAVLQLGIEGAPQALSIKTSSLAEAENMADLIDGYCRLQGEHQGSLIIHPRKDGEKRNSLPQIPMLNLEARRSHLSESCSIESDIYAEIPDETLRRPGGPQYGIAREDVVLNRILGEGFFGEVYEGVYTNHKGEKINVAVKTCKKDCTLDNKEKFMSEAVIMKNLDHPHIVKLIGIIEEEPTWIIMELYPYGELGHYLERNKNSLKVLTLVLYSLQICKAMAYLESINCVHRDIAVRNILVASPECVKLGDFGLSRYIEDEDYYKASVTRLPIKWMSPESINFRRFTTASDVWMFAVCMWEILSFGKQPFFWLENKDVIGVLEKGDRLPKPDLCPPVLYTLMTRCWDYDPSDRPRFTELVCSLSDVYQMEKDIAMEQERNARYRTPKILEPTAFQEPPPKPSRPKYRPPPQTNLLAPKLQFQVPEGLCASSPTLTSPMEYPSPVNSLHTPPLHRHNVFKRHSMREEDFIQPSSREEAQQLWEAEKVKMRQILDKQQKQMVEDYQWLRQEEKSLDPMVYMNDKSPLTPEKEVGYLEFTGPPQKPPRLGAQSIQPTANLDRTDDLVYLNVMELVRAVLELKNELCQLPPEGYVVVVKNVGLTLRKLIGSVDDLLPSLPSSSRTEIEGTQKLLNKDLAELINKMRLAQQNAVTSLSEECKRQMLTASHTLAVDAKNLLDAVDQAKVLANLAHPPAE
In test [7] the target is Cytochrome P450 2D6 (Homo sapiens, UniProt P10635).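 Further: CYP2D6 member of a cytochrome P450 panel assay.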
Sequence of Cytochrome P450 2D6 (P10635 whole entry): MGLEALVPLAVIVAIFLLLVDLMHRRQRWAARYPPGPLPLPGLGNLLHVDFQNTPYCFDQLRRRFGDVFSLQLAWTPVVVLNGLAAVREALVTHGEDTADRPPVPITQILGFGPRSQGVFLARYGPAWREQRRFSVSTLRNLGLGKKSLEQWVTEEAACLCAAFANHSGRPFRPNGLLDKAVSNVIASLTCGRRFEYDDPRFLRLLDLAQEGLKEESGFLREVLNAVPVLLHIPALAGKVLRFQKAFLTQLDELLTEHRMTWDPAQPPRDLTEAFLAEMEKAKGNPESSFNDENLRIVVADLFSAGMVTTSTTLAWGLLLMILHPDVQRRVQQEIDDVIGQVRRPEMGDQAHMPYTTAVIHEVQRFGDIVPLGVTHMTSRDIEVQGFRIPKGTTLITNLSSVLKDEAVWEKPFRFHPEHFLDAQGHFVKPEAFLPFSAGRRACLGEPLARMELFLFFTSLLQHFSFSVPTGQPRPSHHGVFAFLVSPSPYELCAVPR
For test [8], the target named is T1, Bcl-2-related protein A1. In words: Bfl-1 inhibitors, primary screen, biochemical, fluorescence polarization, FITC-Bid, mouse (AID 432).
Test [9] has as its target Sphingosine 1-phosphate receptor 2 (Homo sapiens, UniProt O95136). Briefly: Dose Response Cell Based Assay for Antagonists of the S1P2 Receptor. [Related pubchem assays: 856, 736 ]. The format is functional.
Test [10] has as its target Neurotensin receptor type 1 (Homo sapiens, UniProt P30989). Format: functional.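 Further: Image-based confirmatory dose-response assay measuring agonist activity at NTR1; NTR1-expressing U2OS osteosarcoma cells imaged for beta-arrestin GFP spot formation; agonist potency where compounds increase beta-arrestin recruitment.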
Test [11] can be described thus: Shn3 3'UTR reporter inhibitors, dose response, cell-based, Clone20 osteoblasts, firefly luciferase, cherry-picked (AID 624132).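 Further: firefly luciferase luminescence from reporter carrying the Shn3 3'UTR in osteoblasts.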 Format: functional.
Test [12] can be described thus: HepG2 cell cytotoxicity, dose response, cytotoxicity control for Shn3 inhibitor project, CellTiter-Glo, cherry-picked (AID 624134). Format: functional, cell-based.
Test [13] in a line: control 3'UTR Renilla luciferase suppression, dose response, counter-screen for Shn3 inhibitor project, cell-based, Clone20-Shn3RL, cherry-picked (AID 624133). The format is functional.
In test [14] the target is Protein Wnt-3a (Mus musculus, UniProt P27467). In words: Wnt3a-driven reporter signaling inhibition, dose response, selectivity assay for Gli-SUFU antagonist project, Wnt-LIGHT cells, luminescence (AID 651570).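 Further: Wnt-LIGHT reporter cells stimulated with conditioned medium from Wnt3a-producing cells.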 The format is functional. To be noted: read-out: IC50_Mean.
Test [15] can be described thus: inhibitors of HIV Env-driven cell fusion, dose response, cherry-pick (AID 652057). The format is functional, cell-based.
Test [16] can be described thus: CEM21 lymphoblast cell cytotoxicity, dose response, cytotoxicity control for viral fusion inhibitor project, CellTiter-Glo luminescence, cherry-picked (AID 652042).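 Further: potency for signal decrease meaning cytotoxicity.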 The format is functional, cell-based.
The nature of test [17]: inhibitors of clade B AD8 Env fusion, dose response, cell-based, cherry-pick (AID 652062).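 Further: luciferase signal from cell-cell fusion driven by HIV-1 clade B AD8 Env; potency is for inhibitors of fusion seen as a drop in luminescence.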 The format is functional.
A short description of test [18]: reduction of endogenous Shn3 mRNA, dose response, qPCR, Clone20 cells, cherry-pick (AID 743415). The format is functional, cell-based.
The target of test [19] is COUP transcription factor 2 (Homo sapiens, UniProt P24468). Briefly: Luminescence-based cell-based high throughput dose response assay to identify inhibitors of COUP-TFII (NR2F2). The format is functional.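 Further: HEK293 cells transiently cotransfected with COUP-TFII expression vector and reporter; luciferase reporter luminescence driven by COUP-TFII from the pX2-168 reporter plasmid.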
Sequence of COUP transcription factor 2 (P24468 whole entry): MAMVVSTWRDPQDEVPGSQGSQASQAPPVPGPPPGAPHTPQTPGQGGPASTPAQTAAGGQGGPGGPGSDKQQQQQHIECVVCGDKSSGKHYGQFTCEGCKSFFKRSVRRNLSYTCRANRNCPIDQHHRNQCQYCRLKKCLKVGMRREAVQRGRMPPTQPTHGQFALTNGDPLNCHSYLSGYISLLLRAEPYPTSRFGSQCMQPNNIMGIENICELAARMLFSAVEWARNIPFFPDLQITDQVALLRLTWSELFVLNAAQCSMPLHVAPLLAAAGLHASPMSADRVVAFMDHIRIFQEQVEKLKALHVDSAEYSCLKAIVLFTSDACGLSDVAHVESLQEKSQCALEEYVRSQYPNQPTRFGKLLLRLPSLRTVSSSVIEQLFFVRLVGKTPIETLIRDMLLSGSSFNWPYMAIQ
A short description of test [20]: reduction of Shn3 3'UTR firefly luciferase signal, dose response, Schnurri-3 inhibitor project, cell-based, Clone20 osteoblasts, cherry-pick, set 2 (AID 720490).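 Further: actives lower the luminescence signal as inhibitors.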 The format is functional.
Test [21] concerns the target Heat shock protein HSP 90-alpha (Homo sapiens, UniProt P07900). Briefly: Luminescence-based dose response biochemical high throughput screening assay for inhibitors of the Heat Shock Protein 90 (HSP90). [Related pubchem assays: 1831 (Summary AID.), 1846 (Confirmation screen.), 1789 (Primary screen.)].
A short description of test [22]: Late stage assay provider results from the probe development effort to identify selective inhibitors of heat shock protein 90 (HSP90): Absorbance-based cell proliferation assay in SKBR3 cells. The format is functional. To be noted: SK-BR-3.
Test [23] can be described thus: Late stage assay provider results from the probe development effort to identify selective inhibitors of heat shock protein 90 (HSP90): Absorbance-based cell proliferation assay in MCF7 cells. Format: functional.
The nature of test [24]: THP-1 cell cytotoxicity, dose response, cytotoxicity control for Vif-APOBEC3G degradation inhibitor project, THP-1 cells (AID 1117359). Format: functional. To be noted: Human immunodeficiency virus 1, THP-1.
For test [25], the target named is 5-hydroxytryptamine receptor 1A (Homo sapiens, UniProt P08908). The format is functional.
The subject of test [26] is Vero. Briefly: host cell cytotoxicity of antiviral hits, dose response, cytotoxicity control for West Nile virus antiviral project, secondary assay (AID 1650). The format is functional. To be noted: Chlorocebus sabaeus.
Test [27] can be described thus: growth suppression of PTEN-null colon cells, dose response, cell-based, HCT116 PTEN knockout (AID 1047).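 Further: HCT116 colon tumor cells with PTEN knocked out; cells exposed to compound for 60 hours before readout; potency for loss of cell viability measured by luminescence.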 The format is functional.
Test [28] is described as follows: growth suppression of beta-catenin-knockout colon cells, dose response, cell-based, HCT116, human colon tumor (AID 1045).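 Further: HCT116 colon tumor cells with beta catenin knocked out; cells exposed to compound for 60 hours.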 Format: functional.
Test [29] has as its target Cytochrome P450 2C19 (Homo sapiens, UniProt P33261). In words: qHTS Assay for Inhibitors and Substrates of Cytochrome P450 2C19. [Related pubchem assays: 410 ]. Format: ADME. To be noted: read-out: Potency.
In test [30] the target is Genome polyprotein (Hepatitis C virus, UniProt Q2Q167). Briefly: HCV core protein dimerization inhibitors, dose response, biochemical, TR-FRET (AID 2159).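 Further: blocks dimerization of HCV core protein measured by TR-FRET between tagged core106 pairs.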 Also noted: species or system Hepacivirus hominis.
Sequence of Genome polyprotein (Q2Q167 whole entry): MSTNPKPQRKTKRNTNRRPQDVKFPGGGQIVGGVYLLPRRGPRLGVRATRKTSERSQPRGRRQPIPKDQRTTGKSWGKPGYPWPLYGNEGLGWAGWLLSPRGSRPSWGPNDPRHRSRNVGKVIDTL
For test [31], the target named is T3, Neuropeptides B/W receptor type 1 (Homo sapiens, UniProt P48145).
T3 sequence (P48145 whole entry): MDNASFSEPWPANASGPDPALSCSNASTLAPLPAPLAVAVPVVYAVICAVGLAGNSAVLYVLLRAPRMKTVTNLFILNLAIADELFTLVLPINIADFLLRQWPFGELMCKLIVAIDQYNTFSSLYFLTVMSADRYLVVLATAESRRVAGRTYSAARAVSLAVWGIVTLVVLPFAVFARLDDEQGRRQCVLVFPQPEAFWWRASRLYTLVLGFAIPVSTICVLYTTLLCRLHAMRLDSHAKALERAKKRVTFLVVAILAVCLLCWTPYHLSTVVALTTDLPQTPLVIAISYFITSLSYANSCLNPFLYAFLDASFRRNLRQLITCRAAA
Briefly: Fluorescence-based dose response cell-based high throughput screening assay to identify antagonists of the G-protein coupled receptor 7 (GPR7). [Related pubchem assays: 1952 (Screening assay (GPR7 antagonists).), 1880 (Summary AID.)]. The format is functional.

In test [32] the target is Melanin-concentrating hormone receptor 1 (Homo sapiens, UniProt Q99705). Briefly: Fluorescence-based counterscreen for antagonists of the G-protein coupled receptor 7 (GPR7): cell-based high throughput dose response assay to identify antagonists of the melanin-concentrating hormone receptor 1 (MCHR1). Format: functional.
Sequence of Melanin-concentrating hormone receptor 1 (Q99705 whole entry): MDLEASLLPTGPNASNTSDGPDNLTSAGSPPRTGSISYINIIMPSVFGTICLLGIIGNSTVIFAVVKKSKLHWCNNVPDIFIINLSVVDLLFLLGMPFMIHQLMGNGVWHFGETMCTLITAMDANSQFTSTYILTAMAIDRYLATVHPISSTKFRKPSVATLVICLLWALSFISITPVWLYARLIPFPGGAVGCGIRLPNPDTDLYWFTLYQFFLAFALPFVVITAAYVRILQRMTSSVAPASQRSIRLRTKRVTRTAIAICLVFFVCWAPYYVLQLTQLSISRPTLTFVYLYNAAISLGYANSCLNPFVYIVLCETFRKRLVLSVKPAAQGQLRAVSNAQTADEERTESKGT
Test [33] is described as follows: inhibitors of firefly luciferase expression or activity, dose response, H4 neuroglioma cells, luminescence (AID 1990). Format: functional, cell-based.
Test [34] in a line: Luminescence Cell-Based Dose Response HTS to Identify Inhibitors of 5'UTR Stem-Loop Driven Prion Protein mRNA Translation in H4 Neuroglioblastoma Cells. [Related pubchem assays: 1827 (Project Summary), 1813 (Primary HTS)]. Format: functional.
Test [35] can be described thus: inhibitors of SNCA 5'UTR-driven reporter translation, confirmation, H4 neuroglioma cells, luminescence (AID 1988). Format: functional, cell-based.
Test [36] is described as follows: Luminescence-based dose response cell-based high throughput screening assay for cytotoxic compounds using the IEC-6 intestinal epithelial cell line. [Related pubchem assays: 1858 (Summary AID.), 1825 (Counterscreen.), 1907 (Confirmation screen.)]. Format: functional.

Sequence of Neurotensin receptor type 1 (P30989 whole entry): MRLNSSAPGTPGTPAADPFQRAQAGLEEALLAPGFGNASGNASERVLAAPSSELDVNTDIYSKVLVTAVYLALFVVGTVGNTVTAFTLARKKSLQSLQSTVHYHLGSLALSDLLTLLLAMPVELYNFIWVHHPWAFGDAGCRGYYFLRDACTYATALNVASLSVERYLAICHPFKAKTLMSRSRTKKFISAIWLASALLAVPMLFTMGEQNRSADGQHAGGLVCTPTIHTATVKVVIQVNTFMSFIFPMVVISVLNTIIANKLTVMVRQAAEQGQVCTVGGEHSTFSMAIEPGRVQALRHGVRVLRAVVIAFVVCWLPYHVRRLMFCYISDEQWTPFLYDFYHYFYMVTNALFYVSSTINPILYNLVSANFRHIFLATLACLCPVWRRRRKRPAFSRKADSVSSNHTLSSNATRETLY
Sequence of Sphingosine 1-phosphate receptor 2 (O95136 whole entry): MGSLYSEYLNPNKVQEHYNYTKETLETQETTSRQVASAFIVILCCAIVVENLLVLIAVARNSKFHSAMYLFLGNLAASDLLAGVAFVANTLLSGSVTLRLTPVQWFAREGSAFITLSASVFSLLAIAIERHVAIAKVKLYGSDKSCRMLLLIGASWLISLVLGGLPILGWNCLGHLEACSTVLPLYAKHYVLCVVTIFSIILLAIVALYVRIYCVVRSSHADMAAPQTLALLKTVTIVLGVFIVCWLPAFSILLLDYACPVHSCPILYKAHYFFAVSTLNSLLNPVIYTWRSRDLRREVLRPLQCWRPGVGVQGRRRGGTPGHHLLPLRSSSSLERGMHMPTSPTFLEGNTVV
Sequence of SUMO-activating enzyme (Q9UBE0 whole entry): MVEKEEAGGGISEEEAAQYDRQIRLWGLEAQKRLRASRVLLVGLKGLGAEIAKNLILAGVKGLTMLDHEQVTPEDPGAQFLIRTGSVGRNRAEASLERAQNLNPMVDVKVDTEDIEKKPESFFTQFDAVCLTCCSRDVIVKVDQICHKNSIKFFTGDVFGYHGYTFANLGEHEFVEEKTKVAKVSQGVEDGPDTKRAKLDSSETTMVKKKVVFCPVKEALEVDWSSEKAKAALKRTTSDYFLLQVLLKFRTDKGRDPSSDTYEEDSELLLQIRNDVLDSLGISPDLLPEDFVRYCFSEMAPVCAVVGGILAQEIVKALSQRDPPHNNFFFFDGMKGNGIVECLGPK
Sequence of SUMO-activating enzyme (Q9UBT2 whole entry): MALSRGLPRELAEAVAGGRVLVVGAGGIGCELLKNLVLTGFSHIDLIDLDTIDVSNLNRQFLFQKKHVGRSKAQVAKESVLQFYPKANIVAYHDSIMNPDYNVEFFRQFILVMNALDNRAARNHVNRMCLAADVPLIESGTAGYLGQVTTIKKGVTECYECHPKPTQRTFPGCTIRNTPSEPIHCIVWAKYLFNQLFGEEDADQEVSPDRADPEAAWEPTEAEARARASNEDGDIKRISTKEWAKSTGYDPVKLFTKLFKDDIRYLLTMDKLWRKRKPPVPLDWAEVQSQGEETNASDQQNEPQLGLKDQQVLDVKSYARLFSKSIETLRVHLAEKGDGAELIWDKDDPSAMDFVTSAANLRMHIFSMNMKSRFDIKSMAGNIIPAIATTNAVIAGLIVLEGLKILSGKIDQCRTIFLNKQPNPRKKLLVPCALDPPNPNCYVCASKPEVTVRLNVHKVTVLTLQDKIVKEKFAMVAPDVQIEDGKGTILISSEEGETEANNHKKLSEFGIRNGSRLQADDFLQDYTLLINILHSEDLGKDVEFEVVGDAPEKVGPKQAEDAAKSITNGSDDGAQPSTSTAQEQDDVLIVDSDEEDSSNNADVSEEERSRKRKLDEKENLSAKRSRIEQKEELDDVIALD
Sequence of Cytochrome P450 2C19 (P33261 whole entry): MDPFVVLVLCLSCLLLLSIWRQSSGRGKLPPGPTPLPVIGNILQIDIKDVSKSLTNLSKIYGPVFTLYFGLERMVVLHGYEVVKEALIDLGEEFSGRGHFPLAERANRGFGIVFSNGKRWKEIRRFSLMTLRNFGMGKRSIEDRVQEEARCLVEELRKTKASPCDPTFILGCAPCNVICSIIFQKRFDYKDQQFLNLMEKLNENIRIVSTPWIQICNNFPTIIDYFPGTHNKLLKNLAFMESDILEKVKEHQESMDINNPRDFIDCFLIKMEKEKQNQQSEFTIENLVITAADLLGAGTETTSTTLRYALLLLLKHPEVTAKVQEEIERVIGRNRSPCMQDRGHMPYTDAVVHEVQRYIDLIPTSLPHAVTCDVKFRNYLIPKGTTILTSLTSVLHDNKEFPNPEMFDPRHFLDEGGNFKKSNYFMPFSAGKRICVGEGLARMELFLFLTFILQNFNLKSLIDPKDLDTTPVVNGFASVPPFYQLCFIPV

As to `CN1CCN(C2=C(Cl)C(=O)N(c3cccc(Cl)c3)C2=O)CC1`, the IC50 in test [1] was > 100 µM (not active); in [2] it was 1.17 µM (active); in test [3] it was 2.15 µM (active).

As to `O=C(Nc1ccc(-n2nncc2-c2ccco2)cc1)c1cc2ccccc2oc1=O`, the IC50 is 40.6 µM (not active) in [4], 14.7 µM (active) in test [5] and 1.9 µM (active) in test [6]. Further, the AC50 in test [7] was 2.51 µM (inconclusive).

As to `O=C(NC12CC3CC(CC(C3)C1)C2)c1ccccc1O`, the IC50 in [8] and in test [2] was > 100 µM (not active) in each case.

Consider `Fc1ccc(-n2nnnc2-c2cnc(-c3cccs3)nc2C(F)(F)F)cc1`, for which the IC50 in test [9] was 5.2 µM (active); in [14], 5.83 µM (active); in test [19], 12.8 µM (inactive). Also, in test [10], the EC50 was 9.77 µM (active). Moreover, the AC50 is 4.44 µM (active) in [11]; 55 µM (active) in test [12]; 13.3 µM (active) in test [13]; 9.88 µM (active) in test [15]; 18.8 µM (active) in test [16]; 40.4 µM (active) in test [17]. Besides, the AC50 in test [18] was 24.4 µM (active); in test [20], 2.6 µM (active).

As for `CCOc1ccc(-c2nc(CN3CCCCC3CCn3cccn3)c(C)o2)cc1` (configuration not stated), the results for the IC50 in [21], in test [22] and in test [23] were 9.63 µM (active), 12.3 µM (inactive) and 22.2 µM (inactive), respectively. Besides, in test [24], the CC50 was > 40 µM (active).

As for `O=C(NCc1ccccc1)NC1(C(=O)N2CCCC2)CCCCC1`, the EC50 in test [25] was > 50 µM (not active).

On to `C=CCn1c(SCC(=O)c2[nH]c(C)c(C(=O)OCC)c2C)nc2scc(-c3ccccc3)c2c1=O`, for which the CC50 in test [26] is > 100 µM (active). In addition, the 50% effective concentration (EC50) in [27] was 5.36 µM (active); in [28], 3.85 µM (active).

For `OCC1OC(c2ccccc2)C=CC1Oc1cc(Cl)cc(Cl)c1` (configuration not stated), in test [29], the AC50 was 1.26 µM (inconclusive).

Take `CCc1nnc(NCC(=O)N2CCc3ccccc32)s1`: the IC50 in test [30] is > 49.8 µM (not active).

In the case of `COc1ccc(S(=O)(=O)N(CC(=O)Nc2ccc(S(=O)(=O)N3CCOCC3)cc2)Cc2ccc(F)cc2)cc1`, the IC50 in test [31] and in test [32] was > 43.8 µM (not active) in each case.

In the case of `CC(C)NCC(O)Cn1c2c(c3ccccc31)CCc1c-2cnn1-c1ccccc1` (configuration not stated), the EC50 in [33] was 8.19 µM (active); in [34] it was 10.7 µM (active); in [35], 6.18 µM (active). Besides, the IC50 in test [36] was 3.51 µM (active).

The record behind these values is ChEMBL document CHEMBL1201862, “PubChem BioAssay data set” (2004).
